From ChEMBL document CHEMBL1201862, “PubChem BioAssay data set” (2004)
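How tested: cells in 96-well plates exposed to compound for 48 hours at five concentrations. GI50 marks 50% less growth.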 The source made the active and inactive calls. Cut-off read from the data, not from the text of the source: active = GI50 up to about 1.1 µM and inactive = higher.

Columns and labels:
Assay in all cases: NCI tumour cell line growth inhibition, 48 h
SF-295 = tested on: SF-295
HCT-116 = tested on: HCT-116
M14 = tested on: M14
OVCAR-3 = tested on: OVCAR-3
LOX IMVI = tested on: LOX IMVI
COLO 205 = tested on: COLO 205
NCI-H23 = tested on: NCI-H23
SK-MEL-28 = tested on: SK-MEL-28
TK-10 = tested on: TK-10
UO-31 = tested on: UO-31
NCI-H522 = tested on: NCI-H522
786-0 = tested on: 786-0
Malme-3M = tested on: Malme-3M
HCT-15 = tested on: HCT-15
SK-OV-3 = tested on: SK-OV-3
OVCAR-5 = tested on: OVCAR-5
KM12 = tested on: KM12
SNB-19 = tested on: SNB-19
DU-145 = tested on: DU-145

Measured: GI50

CC[N+](C)(C)c1ccc(C(=C2C=CC(=[N+](C)C)C=C2)c2ccc(N(C)C)cc2)cc1
inactive: SF-295 8.67 µM | HCT-116 4.2 µM | M14 11 µM | OVCAR-3 10.5 µM | LOX IMVI 5.2 µM | COLO 205 5.31 µM | NCI-H23 17.7 µM | SK-MEL-28 16.9 µM | TK-10 28 µM | UO-31 27.5 µM | NCI-H522 2.79 µM | 786-0 5.94 µM | Malme-3M 22.8 µM | SK-OV-3 19.4 µM | OVCAR-5 52 µM | KM12 4.55 µM
22.2 µM: HCT-15

CC(=O)SCCC1c2[nH]c3ccccc3c2CCN1O (stereo not drawn)
71.6 µM: HCT-15
inactive: SF-295 > 100 µM | M14 > 100 µM | OVCAR-3 > 100 µM | LOX IMVI 49 µM | COLO 205 > 100 µM | NCI-H23 > 100 µM | SK-MEL-28 > 100 µM | TK-10 > 100 µM | UO-31 > 100 µM | NCI-H522 23.9 µM | 786-0 > 100 µM | Malme-3M > 100 µM | SNB-19 > 100 µM | SK-OV-3 > 100 µM | OVCAR-5 71.4 µM | KM12 68.9 µM

O=[PH](O)c1cccnc1
> 100 µM: HCT-15
inactive: SF-295 > 100 µM | HCT-116 > 100 µM | M14 > 100 µM | OVCAR-3 > 100 µM | LOX IMVI > 100 µM | COLO 205 > 100 µM | NCI-H23 > 100 µM | SK-MEL-28 > 100 µM | TK-10 > 100 µM | UO-31 > 100 µM | NCI-H522 > 100 µM | 786-0 > 100 µM | Malme-3M > 100 µM | SNB-19 > 100 µM | SK-OV-3 > 100 µM | OVCAR-5 > 100 µM | KM12 > 100 µM

CCOC(=O)/C(=C\NC(C)(C)C)c1nc2ccccc2o1
active: UO-31 0.124 µM
inactive: SF-295 34 µM | HCT-116 37.3 µM | M14 48 µM | OVCAR-3 35.4 µM | LOX IMVI 27.4 µM | COLO 205 21.3 µM | DU-145 43.4 µM | NCI-H23 34.9 µM | SK-MEL-28 36.5 µM | TK-10 27.2 µM | NCI-H522 29.6 µM | 786-0 24.6 µM | Malme-3M 35.7 µM | SNB-19 64 µM | SK-OV-3 92 µM | OVCAR-5 60 µM | KM12 33.3 µM
36.6 µM: HCT-15

O=C(c1nsc(Cl)c1Cl)N1CCCCC1
> 100 µM: HCT-15
inactive: SF-295 > 100 µM | HCT-116 > 100 µM | M14 > 100 µM | OVCAR-3 > 100 µM | LOX IMVI > 100 µM | COLO 205 > 100 µM | DU-145 > 100 µM | NCI-H23 > 100 µM | SK-MEL-28 > 100 µM | TK-10 > 100 µM | UO-31 39.5 µM | 786-0 > 100 µM | Malme-3M > 100 µM | SNB-19 82.8 µM | SK-OV-3 > 100 µM | OVCAR-5 > 100 µM | KM12 > 100 µM

COC(=O)C12OCC34C(CC5C(C)C6=CC(=O)OC6=CC5(C)C3C(O)C1O)OC(=O)C(OC(C)=O)C24 (stereo not drawn)
inactive: SF-295 23 µM | HCT-116 13.7 µM | M14 14.3 µM | OVCAR-3 14.3 µM | LOX IMVI 17.6 µM | COLO 205 8.07 µM | NCI-H23 15.1 µM | SK-MEL-28 15.5 µM | TK-10 17.4 µM | UO-31 24.4 µM | NCI-H522 8.91 µM | 786-0 14.5 µM | Malme-3M 13 µM | SNB-19 33.2 µM | SK-OV-3 29 µM | OVCAR-5 23.1 µM | KM12 16.4 µM
15.3 µM: HCT-15

C[C@]12CC/C(=N\O)C=C1CC[C@@H]1[C@@H]2CC[C@]2(C)C(=N/O)/C(=C/c3cccnc3)C[C@@H]12
inactive: SF-295 6.95 µM | HCT-116 17.5 µM | M14 16.5 µM | LOX IMVI 4.76 µM | COLO 205 17.2 µM | DU-145 21.8 µM | NCI-H23 32.6 µM | SK-MEL-28 16.9 µM | TK-10 15.1 µM | UO-31 4.9 µM | NCI-H522 12.1 µM | 786-0 28.4 µM | Malme-3M 17.8 µM | SNB-19 23.4 µM | SK-OV-3 39.1 µM | OVCAR-5 24.2 µM | KM12 6.98 µM
5.9 µM: HCT-15

CC(=O)OC1(C)C=CC(=O)C=C1
18 µM: HCT-15
inactive: SF-295 37.2 µM | HCT-116 80.2 µM | M14 32.6 µM | OVCAR-3 51.8 µM | LOX IMVI 32.6 µM | COLO 205 > 100 µM | DU-145 36.6 µM | NCI-H23 27.5 µM | SK-MEL-28 23.6 µM | TK-10 22.5 µM | UO-31 23.9 µM | NCI-H522 10.8 µM | 786-0 23.4 µM | SNB-19 48.2 µM | SK-OV-3 > 100 µM | OVCAR-5 40.8 µM | KM12 > 100 µM
